What all share (type): cell-based
Assay [1] has as its system Mouse G3 MB Myc1 neurospheres. The experiment in a line: 72 h dose response, CellTiter-Glo, mouse G3 MB neurospheres. The settings on record: 72 hr treatment, 384-well; for EC50: read-out: G3-MB EC50. As for the experimental part:
(§1) In the Discovery Phase, the initial studies included the screen of a library of 9 compounds against epigenetic regulators at a single concentration and a dose-response on G3 MB, EP, and CPC tumor cells, as well as HEPG2 and BJ (Fig. 1). The library and dose response studies are described in the Supplementary Material.
(§2) Briefly, cells (see Supplementary Table S2 for cell identity) were plated in 384-well plates (Corning) in 30 µL of supplemented neurobasal medium by using an automated plate filler (Wellmate, Matrix). After 24 hr, 28 nL of compound was transferred via pin tool, resulting in a final drug concentration of approximately 4 nM to 10 µM. After 72 hr of treatment, CellTiter-Glo reagent (Promega) was added, and the luminescence signal was measured using an automated Envision plate reader (Perkin-Elmer). Luminescence data were normalized by log10-transformation prior to calculating the percentage of inhibition using the following equation: 100 × (negative control mean − compound value)/(negative control mean − positive control mean). Our negative control represents cells treated with 0.1% DMSO with 0% inhibition. Cells treated with 35 µM cycloheximide (G3 MB tumor spheres) or 10 µM panobinostat (EP and CPC cells) were used as positive controls with 100% inhibition. The response of cells to the compounds were normalized to that of the positive controls present in each plate screened, shown in the Y axis of the dose-response curve. […] Unless otherwise reported, the y-axis for each dose response curve in the figures was independently normalized to the range from 0 to 1 and therefore reported as ‘relative growth inhibition’. High through put assay data were analyzed by using our in-house Robust Interpretation of Screening Experiments (RISE) application that was written in Pipeline Pilot (Accelrys, v. 8.5) and R (R Development Core Team).
For orientation: Cellular ATP, detected with luciferase, serves as a proxy for viable cell number.

In assay [2] the test system is mouse EP neurospheres. In words: 72 h dose response, CellTiter-Glo, mouse EP neurospheres. The settings on record: 72 hr treatment, 384-well; for EC50: read-out: EP EC50. As for the experimental part:
as §1, §2

Assay [3] relates to mouse CPC neurospheres (CPC300). In words: 72 h dose response, CellTiter-Glo, mouse CPC neurospheres. The settings on record: 72 hr treatment, 384-well; for EC50: read-out: CPC300 EC50. Here is the method: as §1, §2

Where two headings read alike, the source gives them in different places. Some results are limits rather than exact numbers.

A word on the EC50: it is the midpoint of the concentration-response curve. Regarding `Nc1nccc2c1ncn2C1C=C(CO)C(O)C1O` (stereo not shown) [3-Deazaneplanocin A], the EC50 in assay [1] (Mus musculus) came out at 360 nM; in assay [2] (Mus musculus), 110 nM; in assay [3] (Mus musculus), 310 nM.
In the case of `Nc1ncn([C@@H]2O[C@H](CO)[C@@H](O)[C@H]2O)c(=O)n1` [5-Azacytidine], in assay [1], the “G3-MB EC50” value was “Inactive”. In addition, the concentration giving a half-maximal response (EC50) in assay [2] (Mus musculus) is 5300 nM; in assay [3] (Mus musculus) it was 1080 nM.
In the case of `Nc1ncn([C@H]2C[C@H](O)[C@@H](CO)O2)c(=O)n1` [Decitabine], the EC50 in assay [1] (Mus musculus) turned out to be 960 nM; in assay [2] (Mus musculus) it was 500 nM; in assay [3] (Mus musculus), 6700 nM.
Take `CCNC(=O)C[C@@H]1N=C(c2ccc(Cl)cc2)c2cc(OC)ccc2-n2c(C)nnc21` [I-BET]: the 50% effective concentration (EC50) in assay [1] was 900 nM; in assay [2], 4100 nM; in assay [3], more than 5500 nM.
Regarding `Cc1sc2c(c1C)C(c1ccc(Cl)cc1)=N[C@@H](CC(=O)OC(C)(C)C)c1nnc(C)n1-2` [JQ1], the EC50 in assay [1] was 700 nM; in assay [2] it was 1700 nM; in assay [3], more than 5600 nM.
`O=C(CCCCCCC(=O)Nc1ccccc1)NO` [SAHA (Vorinostat), Vorinostat]: the “G3-MB EC50” value in assay [1] is “Inactive”.
On to `CC(/C=C/C(=O)NO)=C\[C@@H](C)C(=O)c1ccc(N(C)C)cc1` [Trichostatin A], for which the values for the EC50 in assay [1], in assay [2] and in assay [3] were 100 nM, 400 nM and 2100 nM, respectively.
As for `O=c1ncccn1[C@@H]1O[C@H](CO)[C@@H](O)[C@H]1O` [Zebularin, Zebularine], the “G3-MB EC50” value in assay [1] is “Inactive”. The “EP EC50” value in assay [2] is recorded as “Inactive”. Moreover, the “CPC300 EC50” value in assay [3] is “Inactive”.

Source of the values: paper PMC4718940, “Preclinical studies of 5-fluoro-2′-deoxycytidine and tetrahydrouridine in pediatric brain tumors” (Journal of Neuro-Oncology, 2015).
